Results taken from publication PMC11643494, “Structure–Activity Relationship Studies in a Series of 2-Aryloxy-N-(pyrimidin-5-yl)acetamide Inhibitors of SLACK Potassium Channels” (Molecules, 2024).

Target: T1, WT human SLACK (Homo sapiens, UniProt Q5JUK3)
T1 construct: host or cells: CHO-K1
T1 sequence (Q5JUK3 1-1235 isoform Q5JUK3-3): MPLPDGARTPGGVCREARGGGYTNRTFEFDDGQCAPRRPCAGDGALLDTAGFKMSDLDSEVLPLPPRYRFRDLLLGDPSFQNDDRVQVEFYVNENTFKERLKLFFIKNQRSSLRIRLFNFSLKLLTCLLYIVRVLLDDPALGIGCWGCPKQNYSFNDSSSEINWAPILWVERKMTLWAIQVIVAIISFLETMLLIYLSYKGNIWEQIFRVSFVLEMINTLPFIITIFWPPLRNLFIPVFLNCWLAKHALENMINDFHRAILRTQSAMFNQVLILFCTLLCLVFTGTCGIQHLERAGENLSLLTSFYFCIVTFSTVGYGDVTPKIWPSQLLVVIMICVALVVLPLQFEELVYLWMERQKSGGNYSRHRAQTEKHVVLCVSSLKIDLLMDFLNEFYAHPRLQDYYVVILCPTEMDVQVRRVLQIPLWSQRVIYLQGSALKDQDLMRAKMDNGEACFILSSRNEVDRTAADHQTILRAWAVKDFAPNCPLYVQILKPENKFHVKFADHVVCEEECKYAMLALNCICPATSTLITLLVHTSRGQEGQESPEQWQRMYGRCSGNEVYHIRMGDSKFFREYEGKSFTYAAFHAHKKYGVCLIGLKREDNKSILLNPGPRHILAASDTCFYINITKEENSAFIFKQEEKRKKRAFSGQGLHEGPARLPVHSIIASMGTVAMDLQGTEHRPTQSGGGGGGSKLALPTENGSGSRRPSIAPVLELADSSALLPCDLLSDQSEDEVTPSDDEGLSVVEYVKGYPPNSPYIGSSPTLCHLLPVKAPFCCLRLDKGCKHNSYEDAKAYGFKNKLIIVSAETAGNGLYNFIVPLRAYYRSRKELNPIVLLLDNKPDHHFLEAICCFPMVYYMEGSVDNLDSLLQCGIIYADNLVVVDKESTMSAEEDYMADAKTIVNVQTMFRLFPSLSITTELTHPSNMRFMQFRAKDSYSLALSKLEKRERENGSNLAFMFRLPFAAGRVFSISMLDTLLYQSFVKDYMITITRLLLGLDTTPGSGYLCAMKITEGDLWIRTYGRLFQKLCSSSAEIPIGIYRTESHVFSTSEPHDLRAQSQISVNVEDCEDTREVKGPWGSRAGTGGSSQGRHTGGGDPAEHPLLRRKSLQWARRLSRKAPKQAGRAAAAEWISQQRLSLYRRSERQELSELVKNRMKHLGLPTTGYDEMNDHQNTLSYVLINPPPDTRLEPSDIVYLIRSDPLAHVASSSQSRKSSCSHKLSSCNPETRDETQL
Experiment: Whole-cell automated patch clamp (APC) in CHO-K1 cells stably expressing WT human SLACK
Format: cell-based
Settings: for IC50: APC, CHO-K1 cells stably expressing WT human SLACK, averages (n ≥ 3); for SLACK Imax: maximum inhibition at 30 µM test compound standardized to VU0606170 (set at 100%), WT human SLACK
Procedure: Using concentrations ranging from 0.125 to 30 µM in half-log steps, a concentration–response relationship was generated for each new analog using our APC assay in CHO-K1 cells stably expressing WT SLACK. A minimum of three cells, i.e., replicates, were collected per concentration for each analog.
Automated patch clamp recording was performed with a SyncroPatch 768 PE system (Nanion, Munich, Germany) as previously described. Whole-cell recordings were performed at room temperature. Cells were harvested by first washing with PBS without Mg^2+ or Ca^2+ (Gibco, Billings, MT, USA) to remove cell culture medium, followed by dissociation with TryPLE (Gibco, Billings, MT, USA). Cells were then resuspended and diluted to 200,000 cells/mL in external solution. External solution contained 105 mM NaCl, 4 mM KCl, 1 mM MgCl2, 5 mM CaCl2, 10 mM HEPES, 40 mM N-Methyl-D-glucamine chloride, titrated to pH 7.4 with NaOH and osmolarity of 300 mOsm/kg; internal solution contained 70 mM NaCl, 70 mM KF, 10 mM KCl, 5 mM EGTA, 5mM HEPES, titrated to a pH 7.2 with KOH and osmolarity of 295 mOsm/kg.
The APC protocol was set as following: Cells were held at […] −80 mV for 100 ms, then a ramp protocol was performed from −100 mV to 80 mV at 0.4 mV/ms, hold the cell at −80 mV for another 100 ms, then steps were performed at −20 mV, 0 mV, +20 mV, +40 mV, and +60 mV for 100 ms of each step. Whole-cell currents were measured at 0 mV and normalized to current after external buffer addition.

SMILES | IC50 [nM] | Fold improvement in potency relative to 10 (WT SLACK APC IC50) [fold] | SLACK Imax [%]
CC(C)(Oc1ccc(Cl)cc1)C(=O)Nc1cnc(Oc2c(F)cccc2F)nc1 [Analog 40] | 520 | ~3 | 98
CN(c1ccc(C#N)cc1)c1ncc(NC(=O)C(C)(C)Oc2ccc(Cl)cc2)cn1 [Analog 66] | 910 | – | 95
